Results reported in patent publication US9051564B2, “Compositions for and methods of identifying antigens” (President and Fellows of Harvard College, priority 2006, dated 2015).
“Also recorded” adds a separate entry of the source.

B1: Cta1: Chlamydia-specific T cell antigen-1, protein encoded by C. trachomatis ORF CT788; predicted periplasmic protein of unknown function (protein, listed as Chlamydia trachomatis)
chain: MNSGMFPFTFFLLYICLGMLTAYLANKKNRNLIGWFLAGMFFGIFAIIFLLILPPLPSSTQDNRSMDQQDSEEFLLQNTLEDSEIISIPDTMNQIAIDTEKWFYLNKDYTNVGPISIVQLTAFLKECKHSPEKGIDPQELWVWKKGMPNWEKVKNIPELSGTVKDE

system: spleen cells from NR1 TCR transgenic mice; assay: Proliferation of NR1 transgenic splenocytes in response to peptide ([3H]thymidine incorporation); assay type: cell-based, mouse; conditions: spleen cells from naïve NR1 mice
Protocol: FIG. 16B is a graph showing proliferation of splenocytes from NR1 transgenic or non-transgenic mice in response to the indicated concentrations of Cta1133-152 (SEQ ID NO:2). Proliferation was measured by [^3H]thymidine incorporation into cells.
To determine whether the NR1 transgenic T cells were specific and responsive to Cta1, we tested the proliferation of transgenic spleen cells in response to Cta1133-152 (see FIG. 14; SEQ ID NO:2).

Molecule	proliferation of NR1 spleen cells in response to peptide
KGIDPQELWVWKKGMPNWEK (listed as Chlamydia trachomatis) [20-mer peptide, amino acids 133-152 of Cta1 (CT788)]	strong proliferative response
OVA323-336: control peptide from ovalbumin (KISQAVHAAHAEIN) [reference compound]	did not proliferate

system: spleen cells from NR1 TCR transgenic mice; assay: IFNγ secretion by NR1 spleen cells in response to peptide; assay type: cell-based, mouse; conditions: data not shown

Molecule	IFNγ secretion by NR1 spleen cells in response to peptide
KGIDPQELWVWKKGMPNWEK (listed as Chlamydia trachomatis) [20-mer peptide, amino acids 133-152 of Cta1 (CT788)]	secreted high levels of IFNγ

system: T cell clone NR9.2; assay: Epitope mapping: overlapping synthetic 20-mer Cta1 peptides tested for stimulating NR9.2 to secrete IFNγ (ELISA); assay type: cell-based, mouse; conditions: T cell line NR9.2, synthetic peptides at 25 μM
Excerpt: FIG. 22 is a graph showing T cell clone NR9.2 recognizes the novel T cell antigen Cta1133-152 (SEQ ID NO:2). The antigenic peptide from Cta1 was mapped by testing overlapping 20-mer synthetic peptides for their ability to stimulate NR9.2 to secrete IFNγ. […] Shown below is the protein sequence of Cta1 (SEQ ID NO:1) with […] (SEQ ID NO:2) underlined.
To map more closely the epitope within Cta1 recognized by the NR9.2 T cells, a series of overlapping 20-mer peptides covering the Cta1 sequence for their ability to stimulate NR9.2 to secrete IFNγ were screened (Table 2).
Identification of the T cell antigen Cta1. An expression library of genomic sequences from C. trachomatis serovar D was inserted into a modified form of the pDEST17 vector (Invitrogen) and transformed into the Stb12 strain of E. coli (Invitrogen). Following induction of protein expression, the bacteria were fixed in 0.5% paraformaldehyde and incubated with BMMs. NR9.2 T cells were then added and after 24 h, the supernatant was tested for the level of IFNγ by ELISA (Endogen, Rockford, Ill.). To identify the reactive peptide epitope within Cta1, synthetic 20-mer peptides (MIT Biopolymers Lab, Cambridge, Mass.) were used at a concentration of 25 μM in an IFNγ ELISA (Endogen).

Molecule	IFNγ measured
EFLLQNTLEDSEIISIPDTM [overlapping synthetic 20-mer peptide of Cta1]	0.6 (±0.2) ng
FLKECKHSPEKGIDPQELWV [overlapping synthetic 20-mer peptide of Cta1]	0.5 (±0.4) ng
FYLNKDYTNVGPISIVQLTA [overlapping synthetic 20-mer peptide of Cta1]	0.7 (±0.4) ng
GCANKKNRNLIGWFLAGMFF [overlapping synthetic 20-mer peptide of Cta1]	0.5 (±0.3) ng
GIFAIIFLLILPPLPSSTQD [overlapping synthetic 20-mer peptide of Cta1]	0.4 (±0.2) ng
GPISIVQLTAFLKECKHSPE [overlapping synthetic 20-mer peptide of Cta1]	0.5 (±0.3) ng
IGWFLAGMFFGIFAIIFLLI [overlapping synthetic 20-mer peptide of Cta1]	0.6 (±0.3) ng
KGIDPQELWVWKKGMPNWEK (listed as Chlamydia trachomatis) [20-mer peptide, amino acids 133-152 of Cta1 (CT788)]	58.0 (±14.0) ng
LESTSLYKKAGCANKKNRNL [overlapping synthetic 20-mer peptide of Cta1]	0.4 (±0.2) ng
LPPLPSSTQDNRSMDQQDSE [overlapping synthetic 20-mer peptide of Cta1]	0.6 (±0.2) ng
NQIAIDTEKWFYLNKDYTNV [overlapping synthetic 20-mer peptide of Cta1]	0.5 (±0.2) ng
NRSMDQQDSEEFLLQNTLED [overlapping synthetic 20-mer peptide of Cta1]	0.6 (±0.3) ng
QSGVAGLEQLESI [C-terminal overlapping synthetic peptide of Cta1]	0.8 (±0.2) ng
SEIISIPDTMNQIAIDTEKW [overlapping synthetic 20-mer peptide of Cta1]	0.6 (±0.2) ng
VKDESPSFLVQSGVAGLEQL [overlapping synthetic 20-mer peptide of Cta1]	0.7 (±0.2) ng
VKNIPELSGTVKDESPSFLV [overlapping synthetic 20-mer peptide of Cta1]	0.8 (±0.1) ng
WKKGMPNWEKVKNIPELSGT [overlapping synthetic 20-mer peptide of Cta1]	1.4 (±0.2) ng

same assay, conditions: overlapping 20-mer peptides, listed as Cta1133-152

Molecule	ability to stimulate NR9.2 to secrete IFNγ (in words)
KGIDPQELWVWKKGMPNWEK (listed as Chlamydia trachomatis) [20-mer peptide, amino acids 133-152 of Cta1 (CT788)]	induced NR9.2 to secrete significant levels of IFNγ; also recorded: stimulated NR9.2 to secrete significant levels of IFNγ

system: T cell clone NR9.2; assay: Screen of E. coli clones expressing C. trachomatis ORFs, cultured with BMMs and T cell clone NR9.2, IFNγ ELISA; assay type: cell-based, mouse; conditions: 894 ORFs screened; E. coli expressing the protein
Protocol: FIG. 15 is an image showing clones of E. coli expressing individual C. trachomatis ORFs cultured with BMMs and then incubated with the T cell clone NR9.2. […] E. coli expressing Cta1 (encoded by ORF CT788) induced NR9.2 to secrete high levels of IFNγ (>370 ng/ml) whereas E. coli expressing other Chlamydia proteins in the library induced only background levels of IFNγ secretion (<26 ng/ml). The well indicated as Cta1 and ELISA Standards are yellow; other wells are colorless. […] ELISA standards corresponding to high amounts of IFNγ are indicated.
Chlamydia specific CD4+ T cell clone. To identify a Chlamydia-specific TCR for the creation of TCR transgenic mice, we generated a Chlamydia-specific CD4^+ T cell clone named NR9.2. The clone specifically secreted IFNγ when co-cultured with Chlamydia-infected macrophages in an intracellular cytokine staining assay (FIG. 13A). […] A library of proteins expressed by the C. trachomatis ORFs contained in the genome database was screened. […] CT788 was annotated in the published C. trachomatis genome as a predicted periplasmic protein of unknown function (Stephens et al., Science 282:754-759, 1998), and its sequence shares little homology with proteins outside of the Chlamydia genus. CT788 was designated Cta1 (Chlamydia-specific T cell antigen-1).
Identification of the T cell antigen Cta1. […]

Molecule	stimulation of NR9.2 to secrete IFNγ (in words)
B1	stimulated NR9.2 to secrete significant levels of IFNγ

same assay, conditions: E. coli expressing the ORF, cultured with BMMs then NR9.2; supernatant IFNγ ELISA

Molecule	IFNγ secreted by NR9.2 [ng/mL]
B1	> 370
